Source: patent US4219668A, “4-Hydroxy,4-biphenylbutyric acid” (American Cyanamid Company, priority 1979, dated 1980)

Tests used:
[1] = British Pat. No. 1,390,091; cited from earlier work
[2] = system: aggregation of thromocytes; settings: British Pat. No. 1,390,091; cited from earlier work
[3] = system: platelet aggregation (collagen-induced, platelet rich plasma); test: Inhibition of collagen-induced platelet aggregation ex vivo after oral administration to male rats; format: in vivo; settings: rats bled after one to 2 hours, collagen 500 mcg./ml.
Description: The compounds were administered orally to male rats in various concentrations. After one to 2 hours the rats were bled and platelet rich plasma obtained. Collagen was added at a concentration of 500 mcg./ml. to induce platelet aggregation and comparisons were made between control and treated samples. The percent inhibition of aggregation produced by the test compound was recorded.

[4] = system: respiratory depression associated with platelet aggregation and thrombosis induced by arachidonic acid; test: Inhibition of arachidonic acid-induced respiratory depression in mice; format: in vivo; settings: arachidonic acid 50 mg./kg. i.v. two hours later
Description: In a second test the in vivo activity is determined in mice. […] Mice were treated orally by gastric lavage with the test compounds in a starch suspension at various dosage levels. Two hours later a challenge dose of arachidonic acid was given to the mice intravenously at a concentration of 50 mg./kg. The period of respiratory distress for each animal was recorded in seconds by observation. The results of a typical compound of this invention appear in Table II in terms of percent inhibition in comparison with controls.

[5] = system: carrageenin-induced edema; test: Acute anti-inflammatory activity, carrageenin-induced paw edema; format: in vivo, Royal Hart, Wistar strain rats; settings: 250 mg./kg. by gavage; 5 hours after drug, 4 hours after carrageenin; edema of control animals/edema of treated animals; >1.41 considered active
Description: In determining the acute anti-inflammatory activity, Royal Hart, Wistar strain rats ranging in weight from 80 to 90 grams were used. The rats were fasted overnight prior to dosing but had free access to water. The compounds were administered in aqueous suspension, by gavage, in a column of 1.7 ml. per 50 g. of rat [corresponds to the hydration volume used by Winter, et al., Proc. Soc. Exp. Biol. and Med. 111, 544-547 (1962)].
The phlogistic agent used was carrageenin prepared as a sterile 1% suspension in 0.9% aqueous sodium chloride for routine testing. A volume of 0.05 ml. was injected through a 26 gauge needle into the plantar tissue of the right hind paw. Measurements were made 5 hours after drug administration (4 hours after carrageenin challenge).
Volumes of both the normal and carrageenin inflamed feet were determined. The difference between the two measurements is considered to be the increased edema due to the carrageenin administration. Results are expressed as a C/T efficacy ratio (edema of control animals/edema of treated animals) and a C/T ratio of greater than 1.41 is considered active.

[6] = system: adjuvant induced arthritis (Freund's adjuvant); test: Chronic inflammation, adjuvant induced arthritis; format: in vivo, Royal Hart, Wistar strain rats; settings: 50 mg./kg. oral once daily, days 0 through 13
Description: In a second test the activity against chronic inflammation in adjuvant induced arthritis was determined. Groups of 3 Royal Hart, Wistar strain rats, weighing 200±10 g. each were injected intradermally in the right hind paw with Freund's adjuvant (dried human tubercle bacilli in a mineral oil vehicle) at a dose of 2 mg./kg. of body weight. Test compounds were administered orally in a 1.5% starch vehicle at 50 mg./kg. of body weight once daily on days 0 through 13 post challenge. Control rats were treated in a similar manner, but given only starch vehicle. On the 14th day post challenge the diameter of the injected paw (primary lesion) was measured by micrometer caliper. The volume of inflamed paws was estimated from these measurements and the results are expressed as percent inhibition of swelling as compared to controls. At the same time, the other inflamed sites, such as ears, paws and tail (secondary lesions) were observed and each rat was graded as to the degree of inflammation and swelling present. The grading is based on a scale of 0 to 24, where 0 represents a complete absence of induced arthritic nodules and 24 represents the maximum degree of inflammation. The mean grade for each treated group is calculated and the effects of each compound are expressed as percent inhibition of the control grade. Table IV records the results of this test on a typical compound of this invention.

[7] = system: ultraviolet induced erythema; test: Ultraviolet induced erythema in guinea pigs; format: in vivo, Albino guinea pigs; settings: maximum score 3.0
Description: Another method of determining a drug effect on conditions which result in inflammation is by measuring the effect on ultraviolet induced erythema in guinea pigs. Albino guinea pigs were depilitated on their flanks, the evening before testing, with a standard mixture of barium sulfide and gum acacia. On the morning of the test, groups of 4 guinea pigs were dosed by gavage one hour prior (-1 hour) to ultraviolet exposure. At 0 hour they were restrained in a plastic container which allows exposure of 3 circular spots. They were then exposed to ultraviolet irradiation from a "Hanovia" Kromayer lamp, model 10, for 60 seconds. At one and four hours, the degree of erythema for each of the three sites was assessed according to the following scoring system: 0=no erythema, 0.5=incomplete circle or faint erythema and 1.0=[…] circle of distinct erythema. Thus, the maximum score for each animal was 3.0.

[8] = 62.5 mg./kg. by gavage 1 hour prior to UV, 4 animals
[9] = 125 mg./kg. by gavage 1 hour prior to UV, 4 animals
[10] = 250 mg./kg. by gavage 1 hour prior to UV, 8 animals

| SMILES | activity as indicated (antiphlogistic) [1] | activity as indicated (aggregation of thromocytes) [2] | % Inhibition (platelet aggregation) ([3]; 10 mg./kg. oral) | % Inhibition (platelet aggregation) ([3]; 25 mg./kg. oral) | % Inhibition (platelet aggregation) ([3]; 50 mg./kg. oral) | % Inhibition (period of respiratory distress) ([4]; 1 mg./kg. oral) | % Inhibition (period of respiratory distress) ([4]; 10 mg./kg. oral) | % Inhibition (period of respiratory distress) ([4]; 25 mg./kg. oral) | % Inhibition (period of respiratory distress) ([4]; 50 mg./kg. oral) | C/T Edema Ratio [5] | % Inhibition of Swelling (primary lesion) ([6]; 14th day post challenge, injected paw) | % Inhibition of Control grade (secondary lesion) ([6]; 14th day, grade scale 0 to 24) | Score (avg.) 1 hour [7, 8] | Score (avg.) 4 hour [7, 8] | Score (avg.) 1 hour [7, 9] | Score (avg.) 4 hour [7, 9] | Score (avg.) 1 hour [7, 10] | Score (avg.) 4 hour [7, 10] |
| --- | --- | --- | --- | --- | --- | --- | --- | --- | --- | --- | --- | --- | --- | --- | --- | --- | --- | --- |
| O=C1CCC(c2ccc(-c3ccccc3)cc2)O1 (stereo not drawn) [5-(4-biphenylyl)-2-hydro-2-(3H)-furanone] | antiphlogistic | inhibitory |  |  |  |  |  |  |  |  |  |  |  |  |  |  |  |  |
| O=C(O)CCC(O)c1ccc(-c2ccccc2)cc1 (stereo not drawn) [γ-Hydroxy-4-biphenylbutyric acid] |  |  | 25% | 25% | 19% | 46% | 51% | 66% | 63% | 2.0 | 51% | 30% | 0 | 2.1 | 0.4 | 2.9 | 0 | 2.0 |
